According to ChEMBL document CHEMBL5038635, “Discovery of Salidroside-Derivated Glycoside Analogues as Novel Angiogenesis Agents to Treat Diabetic Hind Limb Ischemia” (J Med Chem, 2022):
Activity calls are given as the source filed them. No cut-off for these calls is given here.

How the values were obtained:
[1] = Toxicity in diabetic HLI C57BL/6 mouse model assessed as heart pathology at 30 mg/kg, IM administered by HE staining based assay; format: organism-based; conditions: in vivo
[2] = test system: MOVAS-1; experiment: Induction proliferation of mouse MOVAS-1 cells assessed as increase in number of EdU-positive cells using conditioned medium of mouse C2C12 cells treated at 30 uM under hyperglycemic condition for 12 hrs followed by hypoxia for 24 hrs by EdU-incorporation assay; format: functional; conditions: time 36 hrs
[3] = test system: C2C12; experiment: Upregulation of HGF protein expression in mouse C2C12 cells at 30 uM by Western blot analysis; format: functional, cell-based
[4] = test system: C2C12; experiment: Apoptotic rate in hyperglycemia-treated mouse C2C12 cells assessed as late apoptotic cells at 15 uM by AnnexinV-FITC/PI staining based flow cytometric analysis (reference value: 10.44 %); format: functional
[5] = test system: C2C12; experiment: Induction proliferation of mouse C2C12 cells assessed as suppression of apoptotic rate at 30 uM under normoglycemic condition by Annexin V/PI staining based Flowcytometry method; format: functional, cell-based
[6] = test system: C2C12; experiment: Angiogenic activity in mouse C2C12 cells assessed as accumulation HIF-1alpha protein expression at 300 uM by Western blot analysis; format: functional, cell-based
[7] = test system: C2C12; experiment: Upregulation of […] protein expression in mouse C2C12 cells at 30 uM by Western blot analysis; format: functional, cell-based
[8] = Dissociation constant, pKa of compound by UV-visible spectrometric method; format: physicochemical
[9] = test system: C2C12; experiment: Upregulation of EPO protein expression in mouse C2C12 cells at 30 uM by Western blot analysis; format: functional, cell-based
[10] = test system: C2C12; experiment: Angiogenic activity in mouse C2C12 cells assessed as reversal of hyperglycemia-induced reduction in total cell number at 100 uM measured after 24 to 36 hrs by EdU-incorporation assay; format: functional, cell-based; conditions: time 24-36 hrs
[11] = test system: C2C12; experiment: Apoptotic rate in hyperglycemia-treated mouse C2C12 cells assessed as necrotic cells at 15 uM by AnnexinV-FITC/PI staining based flow cytometric analysis (reference value: 0.56 %); format: functional
[12] = test system: Mus musculus; experiment: Antidiabetic activity in diabetic HLI C57BL/6 mouse model assessed as suppression of apoptotic rate in skeletal muscle cell in gastrocnemius muscle at 15 to 30 mg/kg, IM administered by TUNEL assay; format: functional, organism-based; conditions: dose 15-30 mg/kg
[13] = test system: C2C12; experiment: Upregulation of FGF2 protein expression in mouse C2C12 cells at 30 uM by Western blot analysis; format: functional, cell-based
[14] = test system: C2C12; experiment: Apoptotic rate in hyperglycemia-treated mouse C2C12 cells assessed as early apoptotic cells at 30 uM by AnnexinV-FITC/PI staining based flow cytometric analysis (reference value: 7.10 %); format: functional
[15] = Toxicity in diabetic HLI C57BL/6 mouse model assessed as spleen pathology at 30 mg/kg, IM administered by HE staining based assay; format: organism-based; conditions: in vivo
[16] = test system: C2C12; experiment: Angiogenic activity in mouse C2C12 cells assessed as accumulation PDGF-BB protein expression at 300 uM by Western blot analysis; format: functional, cell-based
[17] = test system: HUVEC; experiment: Angiogenesis activity in human HUVEC cells assessed as suppression of cell migration using conditioned medium of mouse C2C12 cells treated at 30 uM under hyperglycemic condition for 12 hrs followed by hypoxia for 24 hrs by crystal violet dye based transwell assay; format: functional; conditions: time 36.0 hrs
[18] = test system: C2C12; experiment: Induction of F-actin polymerization in mouse C2C12 cells at 30 uM pretreated with compound for 12 hr followed by hypoxic condition for 24 hrs by phalloidin staining based confocal microscopy; format: functional, cell-based; conditions: time 36.0 hrs
[19] = test system: HUVEC; experiment: Induction proliferation of human HUVEC cells assessed as increase in number of EdU-positive cells using conditioned medium of mouse C2C12 cells with silenced HIF-1alpha treated at 30 uM under hyperglycemic condition for 12 hrs followed by hypoxia for 24 hrs by EdU-incorporation assay; format: functional, cell-based; conditions: time 36.0 hrs
[20] = test system: C2C12; experiment: Induction of proliferation of hyperglycemia-induced mouse C2C12 cell apoptosis assessed as decrease in Annexin V/PI-positive cells at 30 uM pretreated with compound under hyperglycemia condition for 12 hr followed by hypoxia for 24 hrs; format: functional, cell-based; conditions: time 36.0 hrs
[21] = test system: C2C12; experiment: Angiogenic activity in mouse C2C12 cells assessed as reversal of hyperglycemia-induced reduction in cell number by measuring cell proliferation measured after 12 to 36 hrs; format: functional, cell-based
[22] = test system: Mus musculus; experiment: Angiogenic activity in diabetic HLI C57BL/6 mouse model assessed as increase in number of PECAM-1-positive cells at 30 mg/kg administered intramuscularly for 21 days followed by surgery by immunofluorescence analysis; format: functional, organism-based; conditions: time 21.0 day
[23] = Stability in rat plasma assessed as compound remaining at 6.25 to 25 mg/L after 12 hrs by HPLC analysis; format: ADME, cell-free; conditions: at 6.25 to 25 µg/mL, dose 6.25-25 mg/L, read-out: Stability
[24] = test system: C2C12; experiment: Angiogenesis activity in mouse C2C12 cells with silenced HIF-1alpha assessed increase in cell migration at 30 uM under hyperglycemic condition incubated for 24 hrs by crystal violet dye based transwell chamber assay; format: functional
[25] = test system: C2C12; experiment: Angiogenesis activity in mouse C2C12 cells assessed as decrease in apoptotic rate at 30 uM under hyperglycemia condition presence of MeOE2 inhibitor by Annexin V/PI staining based Flowcytometry method; format: functional, cell-based
[26] = test system: MOVAS-1; experiment: Induction proliferation of mouse MOVAS-1 cells assessed as increase in number of EdU-positive cells using conditioned medium of mouse C2C12 cells with silenced HIF-1alpha treated at 30 uM under hyperglycemic condition for 12 hrs followed by hypoxia for 24 hrs in presence of VEGFR inhibitor Ki8751 by EdU-incorporation assay; format: functional, cell-based; conditions: time 36.0 hrs
[27] = test system: C2C12; experiment: Induction of proliferation of hyperglycemia-induced mouse C2C12 cell apoptosis assessed as decrease in Annexin V/PI-positive cells at 15 uM pretreated with compound under hyperglycemia condition for 12 hr followed by hypoxia for 24 hrs; format: functional, cell-based; conditions: time 36.0 hrs
[28] = test system: Mus musculus; experiment: Angiogenic activity in diabetic HLI C57BL/6 mouse model assessed as increase in number of PECAM-1/alpha-SMA double-positive cells at 30 mg/kg, im administered for 21 days followed by surgery by immunofluorescence analysis; format: functional, organism-based; conditions: time 21.0 day
[29] = test system: Mus musculus; experiment: Antidiabetic activity in diabetic HLI C57BL/6 mouse model assessed as morphological changes at 30 mg/kg administered intramuscularly; format: functional, organism-based
[30] = Permeability coefficient across apical to basolateral side in human Caco-2 cells by HPLC-UV analysis
[31] = test system: C2C12; experiment: Down regulation of PHD3 mRNA expression in mouse C2C12 cells at 30 uM by qRT-PCR analysis; format: functional, cell-based

For `COc1ccc(Cc2cccc(O[C@@H]3O[C@H](CO)[C@@H](O)[C@H](O)[C@H]3O)c2)cc1`, the Activity [1] was “Non-Toxic”, the “fold change (FC)” value [2] was 2 and the Activity [3] was “Active”. The Activity [4] was 7.61%, the Activity [5] was “Active” and the inhibition [6] was “Active”. For the same compound, the Activity [7] was “Active”, the pKa [8] was > 14 and the Activity [9] was “Active”. The Activity [10] was “inactive”, the Activity [11] was 0.38% and the Activity [12] was “Active”. For the same compound, the Activity [13] was “Active”, the Activity [14] was 2.13% and the Activity [15] was “Non-Toxic”. The inhibition [16] was “Active”, the Activity [17] was “Active” and the Activity [18] was “Active”. For the same compound, the Activity [19] was “Active”, the Activity [20] was “Active” and the EC50 [21] was 17.3 µM. For the same compound, the Activity [22] was “Active”, the remaining at 12 h [23] was 98.5% and the Activity [24] was “inactive”. The Activity [25] was “inactive”, the Activity [26] was “inactive” and the Activity [27] was “Active”. The Activity [28] was “Active”, the Activity [29] was “Active” and the Papp A→B [30] was 1.04 ×10⁻⁶ cm/s. The Activity [31] was “Active”.
